Measurements taken from ChEMBL document CHEMBL5244209, “Antiplasmodial and antimalarial activities of quinolone derivatives: An overview” (Eur J Med Chem, 2018).

Experiments:
Plasmodium falciparum [1] = assay: Antiplasmodial activity against Plasmodium falciparum Dd2 infected in human Erythrocyte measured after 72 hrs by SYBR green fluorescence dye based microplate reader analysis; type: functional, organism-based
Plasmodium falciparum [2] = assay: Antiplasmodial activity against Plasmodium falciparum D6 infected in human Erythrocyte measured after 72 hrs by SYBR green fluorescence dye based microplate reader analysis; type: functional, organism-based
Plasmodium falciparum [3] = assay: Antiplasmodial activity against Plasmodium falciparum Tm90-C2B infected in human Erythrocyte measured after 72 hrs by SYBR green fluorescence dye based microplate reader analysis; type: functional, organism-based
Plasmodium berghei = assay: Antiplasmodial activity against liver stage Plasmodium berghei ANKA infected in human HepG2 cells measured after 44 hrs; type: functional, organism-based; details: HepG2, 44 h
Plasmodium falciparum [4] = assay: Antimalarial activity against Antimalarial activity against chloroquine-sensitive Plasmodium falciparum FCR-3; type: functional, organism-based
FM3A = assay: Cytotoxicity against mouse FM3A cells; type: functional, cell-based
Plasmodium falciparum [5] = assay: Antimalarial activity against chloroquine-sensitive Plasmodium falciparum 3D7; type: functional, organism-based
Plasmodium falciparum [6] = assay: Antiplasmodial activity against chloroquine-sensitive Plasmodium falciparum 3D7 infected in human erythrocyte incubated for 72 hrs by SYBR green I staining based fluorescence assay; type: functional, organism-based; details: 3D7, Erythrocyte

IC50 (Plasmodium falciparum [1]) [nM] | IC50 (Plasmodium falciparum [2]) [nM] | IC50 (Plasmodium falciparum [3]) [nM] | Structure (SMILES) | also measured
1 | 1 | 5 | COc1ccc2c(=O)c(CCCCCCCCCCC(F)(F)F)c(C)[nH]c2c1 | 
29 | 29 | 92 | CCCCc1c(C)[nH]c2cc(OC)ccc2c1=O | 
3 | 4 | 11 | CCCCCCCc1c(C)nc2cc(OC)ccc2c1O | 
12 | 8 | 52 | CCCCCc1c(C)[nH]c2cc(OC)ccc2c1=O | 
86 | 86 | 102 | CCCCCCCc1c(C)[nH]c2cc(OC(F)(F)F)ccc2c1=O | 

Continued, compound first:

Structure (SMILES) | IC50 (Plasmodium falciparum [1]) [nM] | IC50 (Plasmodium falciparum [2]) [nM] | IC50 (Plasmodium falciparum [3]) [nM] | also measured
CCCCCCCc1c(C)[nH]c2cc(F)cc(F)c2c1=O | 1 | 0.1 | 81 | 
COc1cc2[nH]c(C)c(-c3ccccc3C)c(=O)c2cc1Cl |  |  |  | IC50 (Plasmodium berghei): 2.82 nM
COc1cc2[nH]c(C)c(-c3ccc(C(F)(F)F)cc3)c(=O)c2cc1Cl |  |  |  | IC50 (Plasmodium berghei): 3.07 nM
Cn1cc(C(=O)N/N=C/c2ccncc2)c(=O)c2cc(F)ccc21 |  |  |  | IC50 (Plasmodium falciparum [4]): > 100000 nM
O=C(O)/C(=C\n1cc(C(=O)O)c(=O)c2cc(F)ccc21)c1cccnc1 |  |  |  | IC50 (FM3A): > 100000 nM; IC50 (Plasmodium falciparum [5]): 24000 nM
CCCCCCCc1c(C)[nH]c2cc(O)ccc2c1=O | 805 | 759 | 824 | 
CCOC(=O)/C(=C\n1cc(C(=O)O)c(=O)c2cc(F)ccc21)c1ccccn1 |  |  |  | IC50 (FM3A): > 100000 nM; IC50 (Plasmodium falciparum [5]): 21000 nM
CCOC(=O)c1cn(/C=C(\C(=O)O)c2cccnc2)c2ccc(F)cc2c1=O |  |  |  | IC50 (FM3A): > 100000 nM; IC50 (Plasmodium falciparum [5]): 29000 nM
CCCCCCCc1c(C)[nH]c2cc(C#N)ccc2c1=O | 45 | 18 |  | 
C=CC1CC2CCC1CC2[C@H](OC(=O)[C@H](Cc1ccccc1)NC(=O)C1=CN2C3C(=C(N4CCN(C)CC4)C(F)=CC3C1=O)OC[C@@H]2C)c1cccc2ccc(OC)cc12 (stereo not given in full) |  |  |  | IC50 (Plasmodium falciparum [6]): 48 nM
Cn1cc(C(=O)N/N=C/c2ccccn2)c(=O)c2cc(C(F)(F)F)ccc21 |  |  |  | IC50 (Plasmodium falciparum [4]): 6200 nM
Cn1cc(C(=O)N/N=C/c2ccccn2)c(=O)c2cc(F)ccc21 |  |  |  | IC50 (Plasmodium falciparum [4]): 3300 nM
C=CC1CC2CCC1CC2[C@H](OC(=O)[C@H](Cc1ccccc1)NC(=O)C1=CN(CC)C2C=C3OCOC3=CC2C1=O)c1cccc2ccc(OC)cc12 (stereo not given in full) |  |  |  | IC50 (Plasmodium falciparum [6]): 115 nM
C=CC1CC2CCC1CC2[C@H](OC(=O)[C@H](C)NC(=O)C1=CN(CC)C2C=C3OCOC3=CC2C1=O)c1cccc2ccc(OC)cc12 (stereo not given in full) |  |  |  | IC50 (Plasmodium falciparum [6]): 29 nM
C=CC1CC2CCC1CC2[C@H](OC(=O)CNC(=O)C1=CN(CC)C2C=C(C)C=CC2C1=O)c1cccc2ccc(OC)cc12 (stereo not given in full) |  |  |  | IC50 (Plasmodium falciparum [6]): 46 nM
CCOC(=O)/C(=C\n1cc(C(=O)OCC)c(=O)c2cc(F)ccc21)c1ccccn1 |  |  |  | IC50 (FM3A): > 100000 nM; IC50 (Plasmodium falciparum [5]): 21000 nM
CCCCCCCc1c(C)[nH]c2cc(Cl)ccc2c1=O | 2 | 6 | 64 | 
C=CC1CC2CCC1CC2[C@H](OC(=O)[C@@H](NC(=O)C1=CN(C2CC2)C2C=C(N3CCN(CC)CC3)C(F)=CC2C1=O)C(C)CC)c1cccc2ccc(OC)cc12 (stereo not given in full) |  |  |  | IC50 (Plasmodium falciparum [6]): 207 nM
C=CC1CC2CCC1CC2[C@H](OC(=O)CNC(=O)C1=CN(C2CC2)C2C=C(N3CCN(CC)CC3)C(F)=CC2C1=O)c1cccc2ccc(OC)cc12 (stereo not given in full) |  |  |  | IC50 (Plasmodium falciparum [6]): 28 nM
Cn1cc(C(=O)N/N=C/c2cccnc2)c(=O)c2cc(C(F)(F)F)ccc21 |  |  |  | IC50 (Plasmodium falciparum [4]): > 100000 nM
CCOC(=O)/C(=C\n1cc(C(=O)OCC)c(=O)c2cc(F)ccc21)c1ccncc1 |  |  |  | IC50 (FM3A): > 24000 nM; IC50 (Plasmodium falciparum [5]): 8200 nM
CCOC(=O)/C(=C\n1cc(C(=O)OCC)c(=O)c2cc(F)ccc21)c1cccnc1 |  |  |  | IC50 (FM3A): 100000 nM; IC50 (Plasmodium falciparum [5]): 26000 nM
Cn1cc(C(=O)N/N=C/c2cccnc2)c(=O)c2cc(F)ccc21 |  |  |  | IC50 (Plasmodium falciparum [4]): > 100000 nM
Cn1cc(C(=O)N/N=C/c2ccncc2)c(=O)c2cc(C(F)(F)F)ccc21 |  |  |  | IC50 (Plasmodium falciparum [4]): > 100000 nM
Nc1ccc2c(=O)c3ccc(OCCCCCC(F)(F)F)cc3[nH]c2c1 | 0.02 | 0.02 | 78 | 
